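Interpolation was linear, between the two tested concentrations surrounding the appropriate level; five concentrations were tested over 48 hours in 96-well plates. Abbreviation: GI50, concentration required for 50% inhibition of growth. TGI: concentration producing complete growth inhibition.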
What was measured:
Assay in all cases: growth of human tumour cells (NCI), 48 h
OVCAR-4 ovarian = tested on: OVCAR-4 ovarian
BT-549 breast = tested on: BT-549 breast
SF-539 CNS = tested on: SF-539 CNS
RPMI-8226 leukemia = tested on: RPMI-8226 leukemia
NCI/ADR-RES ovarian = tested on: NCI/ADR-RES ovarian
MDA-MB-231 breast = tested on: MDA-MB-231 breast
OVCAR-5 ovarian = tested on: OVCAR-5 ovarian
TK-10 renal = tested on: TK-10 renal
CAKI-1 renal = tested on: CAKI-1 renal
KM12 colon = tested on: KM12 colon
DU-145 prostate = tested on: DU-145 prostate
SNB-75 CNS = tested on: SNB-75 CNS
HOP-92 NSCLC = tested on: HOP-92 NSCLC
IGROV1 ovarian = tested on: IGROV1 ovarian
U251 CNS = tested on: U251 CNS
SK-MEL-28 melanoma = tested on: SK-MEL-28 melanoma
COLO 205 colon = tested on: COLO 205 colon
SNB-19 CNS = tested on: SNB-19 CNS
A549 NSCLC = tested on: A549 NSCLC
SW-620 colon = tested on: SW-620 colon
SK-MEL-2 melanoma = tested on: SK-MEL-2 melanoma
MCF7 breast = tested on: MCF7 breast
NCI-H522 lung = tested on: NCI-H522 lung
MALME-3M melanoma = tested on: MALME-3M melanoma
SN12C renal = tested on: SN12C renal

O=C1Nc2cc(OC(F)(F)F)ccc2Oc2ccc(-c3ccnc(N4CCNCC4)c3)cc21
GI50 (OVCAR-4 ovarian): 1620 nM | TGI (OVCAR-4 ovarian): 3250 nM | GI50 (BT-549 breast): 1950 nM | TGI (BT-549 breast): 3740 nM | GI50 (SF-539 CNS): 1580 nM | TGI (SF-539 CNS): 2980 nM | GI50 (RPMI-8226 leukemia): 1840 nM | TGI (RPMI-8226 leukemia): 4780 nM | GI50 (NCI/ADR-RES ovarian): 1610 nM | TGI (NCI/ADR-RES ovarian): 3500 nM | GI50 (MDA-MB-231 breast): 1610 nM | TGI (MDA-MB-231 breast): 3180 nM | GI50 (OVCAR-5 ovarian): 1460 nM | TGI (OVCAR-5 ovarian): 3290 nM | GI50 (TK-10 renal): 1500 nM | TGI (TK-10 renal): 3470 nM | GI50 (CAKI-1 renal): 1150 nM | TGI (CAKI-1 renal): 2430 nM | GI50 (KM12 colon): 900 nM | TGI (KM12 colon): 2740 nM | GI50 (DU-145 prostate): 1650 nM | TGI (DU-145 prostate): 3080 nM | GI50 (SNB-75 CNS): 1500 nM | TGI (SNB-75 CNS): 2860 nM | GI50 (HOP-92 NSCLC): 1170 nM | TGI (HOP-92 NSCLC): 2510 nM | GI50 (IGROV1 ovarian): 1200 nM | TGI (IGROV1 ovarian): 2550 nM | GI50 (U251 CNS): 1460 nM | TGI (U251 CNS): 2850 nM | GI50 (SK-MEL-28 melanoma): 1390 nM | TGI (SK-MEL-28 melanoma): 2730 nM | GI50 (COLO 205 colon): 1540 nM | TGI (COLO 205 colon): 3080 nM | GI50 (SNB-19 CNS): 1550 nM | TGI (SNB-19 CNS): 3140 nM | GI50 (A549 NSCLC): 1130 nM | TGI (A549 NSCLC): 2510 nM | GI50 (SW-620 colon): 516 nM | TGI (SW-620 colon): 1730 nM | GI50 (SK-MEL-2 melanoma): 1470 nM | TGI (SK-MEL-2 melanoma): 2930 nM | GI50 (MCF7 breast): 840 nM | TGI (MCF7 breast): > 100000 nM | GI50 (NCI-H522 lung): 1590 nM | TGI (NCI-H522 lung): 3160 nM | GI50 (MALME-3M melanoma): 1260 nM | TGI (MALME-3M melanoma): 2740 nM | GI50 (SN12C renal): 1790 nM | TGI (SN12C renal): 3620 nM
